Experimental data: ChEMBL document CHEMBL3867432, “Autophagy regulates Selumetinib (AZD6244) induced-apoptosis in colorectal cancer cells” (Eur J Med Chem, 2016)
Calls of active or inactive are those of the source. The rule behind the calls is not given here.

Assays:
SW480 [1] = experiment: Induction of apoptosis in human SW480 cells assessed as apoptotic cells at 10 uM after 48 hrs in presence of autophagy inhibitor CQ by annexin V-FITC/propidium iodide staining based flow cytometry (reference value: 9.6 to 15.3%); type: functional
[2] = Antiproliferative activity against human SW480 cells after 72 hrs by MTT assay; type: functional, cell-based; details: SW480, 72 h
[3] = Cell cycle arrest in human SW480 cells assessed as accumulation at G1 phase at 1 uM after 48 hrs by propidium iodide staining based flow cytometry (reference value: 61.2%); type: functional
[4] = Cell cycle arrest in human SW480 cells assessed as accumulation at G1 phase at 3 uM after 48 hrs by propidium iodide staining based flow cytometry (reference value: 61.2%); type: functional
[5] = Cell cycle arrest in human SW480 cells assessed as accumulation at G1 phase at 10 uM after 48 hrs by propidium iodide staining based flow cytometry (reference value: 61.2%); type: functional
[6] = Cell cycle arrest in human SW480 cells assessed as accumulation at subG1 phase at 1 uM after 48 hrs by propidium iodide staining based flow cytometry (reference value: 5.7%); type: functional
[7] = Cell cycle arrest in human SW480 cells assessed as accumulation at subG1 phase at 3 uM after 48 hrs by propidium iodide staining based flow cytometry (reference value: 5.7%); type: functional
[8] = Cell cycle arrest in human SW480 cells assessed as accumulation at subG1 phase at 10 uM after 48 hrs by propidium iodide staining based flow cytometry (reference value: 5.7 to 15.3%); type: functional
SW480 [9] = experiment: Induction of apoptosis in human SW480 cells assessed as necrotic cells at 1 uM after 48 hrs by annexin V-FITC/propidium iodide staining based flow cytometry (reference value: 2.8%); type: functional
SW480 [10] = experiment: Induction of apoptosis in human SW480 cells assessed as necrotic cells at 3 uM after 48 hrs by annexin V-FITC/propidium iodide staining based flow cytometry (reference value: 2.8%); type: functional
SW480 [11] = experiment: Induction of apoptosis in human SW480 cells assessed as necrotic cells at 10 uM after 48 hrs by annexin V-FITC/propidium iodide staining based flow cytometry (reference value: 2.8%); type: functional
SW480 [12] = experiment: Induction of apoptosis in human SW480 cells assessed as apoptotic cells at 1 uM after 48 hrs by annexin V-FITC/propidium iodide staining based flow cytometry (reference value: 10.6%); type: functional
SW480 [13] = experiment: Induction of apoptosis in human SW480 cells assessed as apoptotic cells at 3 uM after 48 hrs by annexin V-FITC/propidium iodide staining based flow cytometry (reference value: 10.6%); type: functional
SW480 [14] = experiment: Induction of apoptosis in human SW480 cells assessed as apoptotic cells at 10 uM after 48 hrs by annexin V-FITC/propidium iodide staining based flow cytometry (reference value: 9.6 to 15.3%); type: functional
SW480 [15] = experiment: Induction of apoptosis in human SW480 cells assessed as accumulation at subG1 phase at 10 uM after 48 hrs in presence of pan caspase inhibitor zVAD by Annexin-V-FITC/propidium iodide staining based flow cytometry (reference value: 15.3%); type: functional
SW480 [16] = experiment: Induction of autophagy in human SW480 cells assessed as increase in LC3-2 level at 10 uM after 1 to 4 hrs by Western blot analysis; type: functional, cell-based
SW480 [17] = experiment: […] of autophagy in human SW480 cells expressing mCherry-eGFPeLC3 assessed as accumulation of autophagosomes at 10 uM after 2 hrs by confocal microscopic analysis; type: functional, cell-based
SW480 [18] = experiment: Induction of apoptosis in human SW480 cells assessed as accumulation at subG1 phase at 10 uM after 48 hrs in presence of autophagy inducer rapamycin by propidium iodide staining based flow cytometry (reference value: 5.7 to 15.3%); type: functional
SW480 [19] = experiment: Induction of apoptosis in human SW480 cells assessed as apoptotic cells at 10 uM after 48 hrs in presence of autophagy inducer rapamycin by annexin V-FITC/propidium iodide staining based flow cytometry (reference value: 9.6 to 15.3%); type: functional
SW480 [20] = experiment: Induction of apoptosis in human SW480 cells assessed as increase in LC3-2 level at 10 uM after 48 hrs in presence of autophagy inhibitor bafilomycin A1 by Western blot analysis; type: functional, cell-based
SW480 [21] = experiment: Induction of apoptosis in human SW480 cells assessed as apoptotic cells at 10 uM after 48 hrs in presence of autophagy inhibitor bafilomycin A1 by annexin V-FITC/propidium iodide staining based flow cytometry (reference value: 9.6 to 15.3%); type: functional
SW480 [22] = experiment: Induction of apoptosis in human SW480 cells assessed as apoptotic cells at 10 uM after 48 hrs in presence of autophagy inhibitor 3-MA by annexin V-FITC/propidium iodide staining based flow cytometry (reference value: 9.6 to 15.3%); type: functional
HT-29 [23] = experiment: Induction of apoptosis in human HT-29 cells assessed as apoptotic cells at 10 uM after 48 hrs in presence of autophagy inhibitor bafilomycin A1 by annexin V-FITC/propidium iodide staining based flow cytometry (reference value: 15.7 to 19.6%); type: functional
HT-29 [24] = experiment: Induction of apoptosis in human HT-29 cells assessed as apoptotic cells at 10 uM after 48 hrs by annexin V-FITC/propidium iodide staining based flow cytometry (reference value: 15.7 to 19.6%); type: functional
HT-29 [25] = experiment: Induction of apoptosis in human HT-29 cells assessed as apoptotic cells at 10 uM after 48 hrs in presence of autophagy inhibitor CQ by annexin V-FITC/propidium iodide staining based flow cytometry (reference value: 15.7 to 19.6%); type: functional
SW480 [26] = experiment: Induction of apoptosis in beclin-1 silenced human SW480 cells assessed as apoptotic cells at 10 uM after 48 hrs by annexin V-FITC/propidium iodide staining based flow cytometry (reference value: 14.4%); type: functional
SW480 [27] = experiment: Induction of apoptosis in human SW480 cells after 48 hrs by annexin V-FITC/propidium iodide staining based flow cytometry; type: functional, cell-based
[28] = Cell cycle arrest in human SW480 cells after 48 hrs by propidium iodide staining based flow cytometry; type: functional

## Cn1cnc2c(F)c(Nc3ccc(Br)cc3Cl)c(C(=O)NOCCO)cc21 [SELUMETINIB]
SW480 [1]
  Activity: 55.4%
[2]
  IC50: 422 nM
[3]
  Activity: 75%
[4]
  Activity: 59.6%
[5]
  Activity: 58%
[6]
  Activity: 10%
[7]
  Activity: 17.8%
[8]
  Activity: 23.7 to 42.9%
SW480 [9]
  Activity: 4.2%
SW480 [10]
  Activity: 4.9%
SW480 [11]
  Activity: 5.3%
SW480 [12]
  Activity: 17.4%
SW480 [13]
  Activity: 23.1%
SW480 [14]
  Activity: 29 - 42.9%
SW480 [15]
  Activity: 24.1%
SW480 [16]
  Activity: Active
SW480 [17]
  inhibition: Active
SW480 [18]
  Activity: 11.9%
SW480 [19]
  Activity: 21.4%
SW480 [20]
  Activity: Active
SW480 [21]
  Activity: 64.9%
SW480 [22]
  Activity: 41.1%
HT-29 [23]
  Activity: 68.3%
HT-29 [24]
  Activity: 43.9 - 51.2%
HT-29 [25]
  Activity: 58.6%
SW480 [26]
  Activity: 53.3%
SW480 [27]
  Activity: Dose-dependent effect
[28]
  Activity: Dose-dependent effect
